Test results taken from ChEMBL document CHEMBL3879881, “Substituted pyrazolyl compounds for the treatment of inflammation” (2005).

The compounds below were run against T1, Inhibitor of nuclear factor kappa-B kinase subunit beta (Homo sapiens, UniProt O14920) (assay: Inhibition of human recombinant C-terminal FLAG-epitope-tagged IKK2 expressed in baculovirus using biotinylated IkappaBalpha peptide as substrate assessed as decrease in [gamma-33P]-ATP incorporation in substrate after 30 mins by scintillation counting method).
T1 sequence (O14920 whole entry): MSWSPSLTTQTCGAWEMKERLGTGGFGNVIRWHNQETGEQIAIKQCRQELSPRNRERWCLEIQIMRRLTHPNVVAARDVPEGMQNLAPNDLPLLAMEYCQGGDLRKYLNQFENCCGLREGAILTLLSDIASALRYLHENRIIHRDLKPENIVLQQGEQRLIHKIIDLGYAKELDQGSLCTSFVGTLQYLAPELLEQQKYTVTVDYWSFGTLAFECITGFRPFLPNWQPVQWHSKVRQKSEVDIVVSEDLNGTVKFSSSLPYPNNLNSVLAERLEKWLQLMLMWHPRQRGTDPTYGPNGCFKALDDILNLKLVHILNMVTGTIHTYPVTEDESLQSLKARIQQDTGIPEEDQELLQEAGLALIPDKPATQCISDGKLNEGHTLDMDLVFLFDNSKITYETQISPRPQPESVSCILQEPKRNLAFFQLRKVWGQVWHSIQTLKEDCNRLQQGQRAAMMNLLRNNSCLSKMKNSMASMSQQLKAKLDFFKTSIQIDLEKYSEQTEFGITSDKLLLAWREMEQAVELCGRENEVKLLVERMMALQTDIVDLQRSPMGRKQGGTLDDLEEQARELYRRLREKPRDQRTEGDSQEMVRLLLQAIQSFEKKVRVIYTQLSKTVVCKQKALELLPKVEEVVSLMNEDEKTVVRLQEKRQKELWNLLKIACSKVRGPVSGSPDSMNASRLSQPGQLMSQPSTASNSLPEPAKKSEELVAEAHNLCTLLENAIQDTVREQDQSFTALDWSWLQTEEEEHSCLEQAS

Structure (SMILES) | IC50
NC(=O)c1nn(-c2ccc(S(=O)(=O)C(F)(F)F)cc2)c2c1CCc1ccc(N)cc1-2 | 1000 to 10000 nM
CCCS(=O)(=O)c1ccc(-n2nc(C(N)=O)c3c2-c2cc(NS(C)(=O)=O)ccc2CC3)cc1 | 1000 to 10000 nM
CN(C)S(=O)(=O)c1ccc(-n2nc(C(N)=O)c3c2-c2cc(NC(=O)c4cccc(Cl)c4)ccc2CC3)cc1 | 1000 to 10000 nM
CN(C)CCC(=O)Nc1ccc(-n2nc(C(N)=O)c3c2-c2cc(NC(=O)c4ccccc4Cl)ccc2CC3)cc1 | 1000 to 10000 nM
CS(=O)(=O)c1ccc(-n2nc(C(N)=O)c3c2-c2cc(NC(=O)c4cc(Cl)ncc4Cl)ccc2CC3)cc1 | ≤ 1000 nM
CC1Cc2c(C(N)=O)nn(-c3ccc(F)cc3)c2-c2cc(NC(=O)c3ccncc3Cl)ccc21 (configuration not stated) | ≤ 1000 nM
CC(C)(C)C(=O)ONCCCCC(=O)Nc1ccc(-n2nc(C(N)=O)c3c2-c2cc(NC(=O)c4ccccc4Cl)ccc2CC3)cc1 | 1000 to 10000 nM
NC(=O)c1nn(-c2cccc(F)c2)c2c1CCc1ccc(NC(=O)c3cccc(Cl)c3F)cc1-2 | 1000 to 10000 nM
CN1CCN(c2cc(C(=O)Nc3ccc4c(c3)-c3c(c(C(N)=O)nn3-c3ccc(S(C)(=O)=O)cc3)CC4)c(Cl)cn2)CC1 | ≤ 1000 nM
CC1Cc2c(C(N)=O)nn(-c3ccc(F)cc3F)c2-c2cc(NC(=O)c3ccncc3Cl)ccc21 (configuration not stated) | ≤ 1000 nM
NC(=O)c1nn(-c2ccc(F)cc2)c2c1CCc1ccc(NC(=O)c3cc(N4CCN(CCO)CC4)ncc3Cl)cc1-2 | ≤ 1000 nM
NC(=O)c1nn(-c2ccc3c(c2)OCO3)c2c1CCc1ccc(NC(=O)c3nc(CN4CCOCC4)ccc3Cl)cc1-2 | ≤ 1000 nM
NC(=O)c1nn(-c2ccc(F)cc2)c2c1CCc1ccc(NC(=O)c3cc(-c4ccncc4)ncc3Cl)cc1-2 | ≤ 1000 nM
NC(=O)c1nn(-c2ccc(S(=O)(=O)N3CCOCC3)cc2)c2c1CCc1ccc(N)cc1-2 | 1000 to 10000 nM
CCCS(=O)(=O)c1ccc(-n2nc(C(N)=O)c3c2-c2cc(NC(=O)c4cc(N)ccc4Cl)ccc2CC3)cc1 | ≤ 1000 nM
CCCS(=O)(=O)c1ccc(-n2nc(C(N)=O)c3c2-c2cc(NC(=O)c4cccnc4Cl)ccc2CC3)cc1 | 1000 to 10000 nM
CC(=O)c1ccc(-n2nc(C(N)=O)c3c2-c2cc(NC(=O)c4cccnc4Cl)ccc2CC3)cc1 | 1000 to 10000 nM
NC(=O)c1nn(-c2ccc(F)cc2)c2c1CCc1ccc(NC(=O)c3cc(CCN4CCOCC4)ncc3Cl)cc1-2 | ≤ 1000 nM
N#Cc1cc(C(=O)Nc2ccc3c(c2)-c2c(c(C(N)=O)nn2-c2ccc(F)cc2)CC3)c(Cl)cn1 | ≤ 1000 nM
NC(=O)c1nn(-c2ccc3c(c2)OCO3)c2c1CCc1ccc(NC(=O)c3cc(CCN4CCOCC4)ncc3Cl)cc1-2 | ≤ 1000 nM
NC(=O)c1nn(-c2cc(F)c(N)cc2F)c2c1CCc1ccc(NC(=O)c3ccncc3Cl)cc1-2 | ≤ 1000 nM
C[S+]([O-])c1ccc(-n2nc(C(N)=O)c3c2-c2cc(NC(=O)c4cccnc4Cl)ccc2CC3)cc1 (configuration not stated) | ≤ 1000 nM
NC(=O)c1nn(-c2ccc(NC(=O)c3ccccc3)cc2)c2c1CCc1ccc(NC(=O)c3ccccc3Cl)cc1-2 | 1000 to 10000 nM
CC1Cc2c(C(N)=O)nn(-c3ccc(F)cc3)c2-c2cc(NC(=O)c3cccnc3Cl)ccc21 (configuration not stated) | ≤ 1000 nM

Structure (SMILES) | IC50
C[S+]([O-])c1ccc(-n2nc(C(N)=O)c3c2-c2cc(NS(C)(=O)=O)ccc2CC3)cc1 (configuration not stated) | 1000 to 10000 nM
CCCS(=O)(=O)c1ccc(-n2nc(C(N)=O)c3c2-c2cc(N)ccc2CC3)cc1 | 1000 to 10000 nM
CCCS(=O)(=O)c1ccc(-n2nc(C(N)=O)c3c2-c2cc(NC(=O)c4cc(NC(=O)OC(C)(C)C)ccc4Cl)ccc2CC3)cc1 | 1000 to 10000 nM
CSc1ccc(-n2nc(C(N)=O)c3c2-c2cc(NC(=O)c4ccccc4Cl)ccc2CC3)cc1 | 1000 to 10000 nM
NC(=O)c1nn(-c2ccc(S(=O)(=O)N3CC=CC3)cc2)c2c1CCc1ccc(N)cc1-2 | 1000 to 10000 nM
C#CCN(CC#C)S(=O)(=O)c1ccc(-n2nc(C(N)=O)c3c2-c2cc(NC(=O)c4ccccc4Cl)ccc2CC3)cc1 | 1000 to 10000 nM
CN1CC=C(c2cc(C(=O)Nc3ccc4c(c3)-c3c(c(C(N)=O)nn3-c3ccc(F)cc3)CC4)c(Cl)cn2)CC1 | ≤ 1000 nM
CN(C)CCNS(=O)(=O)c1ccc(-n2nc(C(N)=O)c3c2-c2cc(N)ccc2CC3)cc1 | 1000 to 10000 nM
NC(=O)c1nn(-c2ccc(F)c(F)c2)c2c1CCc1ccc(NC(=O)c3cccc(Cl)c3Cl)cc1-2 | 1000 to 10000 nM
CN(C)CCc1cc(C(=O)Nc2ccc3c(c2)-c2c(c(C(N)=O)nn2-c2ccc(F)cc2)CC3)c(Cl)cn1 | ≤ 1000 nM
CC(=O)Nc1ccc2c(c1)-c1c(c(C(N)=O)nn1-c1ccc(S(=O)(=O)N(C)C)cc1)CC2 | 1000 to 10000 nM
C=CCN(CC=C)S(=O)(=O)c1ccc(-n2nc(C(N)=O)c3c2-c2cc(NS(C)(=O)=O)ccc2CC3)cc1 | 1000 to 10000 nM
NC(=O)c1nn(-c2ccc(NC(=O)COCc3ccccc3)cc2)c2c1CCc1ccc(NC(=O)c3ccccc3Cl)cc1-2 | 1000 to 10000 nM
CNCC(=O)Nc1ccc2c(c1)-c1c(c(C(N)=O)nn1-c1ccc3c(c1)OCO3)CC2 | 1000 to 10000 nM
CC1Cc2c(C(N)=O)nn(-c3ccc(F)cc3)c2-c2cc(NC(=O)c3cc(N4CCN(C)CC4)ccc3Cl)ccc21 (configuration not stated) | ≤ 1000 nM
NC(=O)c1nn(-c2ccc(-n3cccc3)cc2)c2c1CCc1ccc(NC(=O)c3ccccc3Cl)cc1-2 | 1000 to 10000 nM
C[S+]([O-])c1ccc(-n2nc(C(N)=O)c3c2-c2cc(NC(=O)c4ccncc4Cl)ccc2CC3)cc1 (configuration not stated) | ≤ 1000 nM
C[S+]([O-])c1ccc(-n2nc(C(N)=O)c3c2-c2cc(NC(=O)c4ccccc4Cl)ccc2CC3)cc1 (configuration not stated) | ≤ 1000 nM
CCS(=O)(=O)c1ccc(-n2nc(C(N)=O)c3c2-c2cc(NS(C)(=O)=O)ccc2CC3)cc1 | 1000 to 10000 nM
Cc1cc(Cl)ncc1C(=O)Nc1ccc2c(c1)-c1c(c(C(N)=O)nn1-c1ccc3c(c1)OCO3)CC2 | ≤ 1000 nM
C[S+]([O-])c1ccc(-n2nc(C(N)=O)c3c2-c2cc(NC(=O)c4cc(N)ccc4Cl)ccc2CC3)cc1 (configuration not stated) | ≤ 1000 nM
NCc1ccc(Cl)c(C(=O)Nc2ccc3c(c2)-c2c(c(C(N)=O)nn2-c2ccc4c(c2)OCO4)CC3)n1 | 1000 to 10000 nM
NCc1cc(C(=O)Nc2ccc3c(c2)-c2c(c(C(N)=O)nn2-c2ccc4c(c2)OCO4)CC3)c(Cl)cn1 | ≤ 1000 nM
CC1Cc2c(C(N)=O)nn(-c3ccc(N)cc3F)c2-c2cc(NC(=O)c3ccncc3Cl)ccc21 (configuration not stated) | ≤ 1000 nM

Structure (SMILES) | IC50
NC(=O)c1nn(-c2ccc(F)cc2)c2c1CCc1ccc(NC(=O)c3cc(CN4CCOCC4)ncc3Cl)cc1-2 | ≤ 1000 nM
NC(=O)c1nn(-c2ccc3c(c2)OCO3)c2c1CCc1ccc(NC(=O)CNCC3CC3)cc1-2 | 1000 to 10000 nM
NC(=O)c1nn(-c2ccc(S(=O)(=O)CC3CC3)cc2)c2c1CCc1ccc(NC(=O)c3ccccc3Cl)cc1-2 | 1000 to 10000 nM
CC(O)c1ccc(-n2nc(C(N)=O)c3c2-c2cc(NC(=O)c4cccnc4Cl)ccc2CC3)cc1 (configuration not stated) | ≤ 1000 nM
COc1cccc(-n2nc(C(N)=O)c3c2-c2cc(NC(=O)c4ccccc4Cl)ccc2CC3)c1 | 1000 to 10000 nM
C[S+]([O-])c1ccc(-n2nc(C(N)=O)c3c2-c2cc(NC(=O)c4cc5c(cc4Cl)OCO5)ccc2CC3)cc1 (configuration not stated) | ≤ 1000 nM
NC(=O)c1nn(-c2ccc3c(c2)OCO3)c2c1CCc1ccc(NC(=O)CNC3CCCCC3)cc1-2 | 1000 to 10000 nM
C#Cc1ccc(-n2nc(C(N)=O)c3c2-c2cc(NC(=O)c4cccnc4Cl)ccc2CC3)cc1 | 1000 to 10000 nM
NC(=O)c1nn(-c2cc(F)c(N)c(F)c2)c2c1CCc1ccc(NC(=O)c3ccncc3Cl)cc1-2 | ≤ 1000 nM
NCCCS(=O)(=O)c1ccc(-n2nc(C(N)=O)c3c2-c2cc(NC(=O)c4cccnc4Cl)ccc2CC3)cc1 | 1000 to 10000 nM
NC(=O)c1nn(-c2ccc(Cl)cc2)c2c1CCc1ccc(NC(=O)c3cnccc3Cl)cc1-2 | ≤ 1000 nM
N#Cc1cc(C(=O)Nc2ccc3c(c2)-c2c(c(C(N)=O)nn2-c2ccc4c(c2)OCO4)CC3)c(Cl)cn1 | ≤ 1000 nM
NC(=O)c1nn(-c2ccc(Br)cc2)c2c1CCc1ccc(N)cc1-2 | 1000 to 10000 nM
NC(=O)c1nn(-c2ccc3c(c2)OCO3)c2c1CCc1ccc(NC(=O)CN3CCCC3)cc1-2 | 1000 to 10000 nM
NC(=O)c1nn(-c2ccc(NC(=O)c3ccccc3Cl)cc2)c2c1CCc1ccc(NC(=O)c3ccccc3Cl)cc1-2 | 1000 to 10000 nM
CCS(=O)(=O)c1ccc(-n2nc(C(N)=O)c3c2-c2cc(N)ccc2CC3)cc1 | 1000 to 10000 nM
N#Cc1ccc(Cl)c(C(=O)Nc2ccc3c(c2)-c2c(c(C(N)=O)nn2-c2ccc4c(c2)OCO4)CC3)n1 | 1000 to 10000 nM
CN(C)CCNS(=O)(=O)c1ccc(-n2nc(C(N)=O)c3c2-c2cc(NC(=O)c4ccccc4Cl)ccc2CC3)cc1 | ≤ 1000 nM
CCCCS(=O)(=O)c1ccc(-n2nc(C(N)=O)c3c2-c2cc(NC(=O)c4ccccc4Cl)ccc2CC3)cc1 | 1000 to 10000 nM
CN(C)CCNc1cc(C(=O)Nc2ccc3c(c2)-c2c(c(C(N)=O)nn2-c2ccc(F)cc2)CC3)c(Cl)cn1 | ≤ 1000 nM
C[C@@H]1CN(c2cc(C(=O)Nc3ccc4c(c3)-c3c(c(C(N)=O)nn3-c3ccc(F)cc3)CC4)c(Cl)cn2)CCN1 | ≤ 1000 nM
NC(=O)c1nn(-c2ccc(F)cc2)c2c1CCc1ccc(NC(=O)c3ccnc(N4CCOCC4)c3)cc1-2 | ≤ 1000 nM
NC(=O)c1nn(-c2ccc(F)cc2)c2c1CCc1ccc(NC(=O)c3cc(N4CCCNCC4)ncc3Cl)cc1-2 | ≤ 1000 nM
COCCN1CCN(c2cc(C(=O)Nc3ccc4c(c3)-c3c(c(C(N)=O)nn3-c3ccc(F)cc3)CC4)c(Cl)cn2)CC1 | ≤ 1000 nM
